Assay results reported in article PMC12682947, “Identification of New KCNT1‐Epilepsy Drugs by In Silico, Cell, and Drosophila Modeling” (Annals of Neurology, 2025).
Read-outs that look alike come from different tables or passages of the source.

Experiments:
[1] = Plasma pharmacokinetics and brain uptake of antrafenine in mice (LC-MS); type: in vivo, male C57BL/6 mice; conditions: male, C57BL/6, mouse; for Kp at 1 h / concentration at 1 h / Kp at 4 h / concentration at 4 h / concentration at 0.25 h / concentration at 24 h / half-life: iv; for AUC(0-inf): read-out: Plasma AUC0-inf; for clearance: read-out: Plasma CL; for Vd: read-out: Plasma VSS
Description: Plasma pharmacokinetics and brain uptake of antrafenine was analyzed in male C57BL/6 mice. Antrafenine was administered intravenously at 1 mg/kg and 3 mg/kg into the tail vein and plasma was collected over a 24‐hour sampling period (n = 3 mice/time point). Following administration, the brain was harvested at 4 times over 24 hours and snap frozen in dry ice and subsequently stored frozen (−80°C) until analysis. The concentration of antrafenine was determined using liquid chromatography–mass spectrometry. The in vivo study was conducted using established procedures in accordance with the Australian Code of Practice for the Care and Use of Animals for Scientific Purposes, and the study protocols were reviewed and approved by the Monash Institute of Pharmaceutical Sciences Animal Ethics Committee. See Supporting Information for detailed methods and results. […]
Plasma pharmacokinetics and brain uptake of antrafenine was analyzed in male C57BL/6 mice by the Monash University Centre for Drug Candidate Optimisation. Antrafenine was administered intravenously at 1 mg/kg and 3 mg/kg into the tail vein and plasma was collected over a 24 h sampling period (n=3 mice/time point). Following administration, brain was harvested at four times over 24 hours and snap frozen in dry ice and subsequently stored frozen (-80°C) until analysis. The concentration of antrafenine was determined using liquid chromatography–mass spectrometry (LC-MS).
4 hrs post IV administration of 3 mg/kg Antrafenine was taken as a representative time to compare plasma and brain concentrations. At 4 hrs we determined a mean plasma concentration of 47.5 nM (+5.9 nM SD) and a mean brain concentration of 13.9 nM (+3 nM SD). […]
Plasma pharmacokinetics and brain uptake of antrafenine
The systemic exposure of antrafenine was studied in non-fasted male C57BL/6 mice weighing 19.8 – 24.6 g. Mice had access to food and water ad libitum throughout the pre- and post-dose period. Antrafenine hydrochloride Mw 588.554 (Lot#10-KSS-51-2) was obtained from Toronto Research Chemicals/LGC Standards, Canada, and was dissolved in vehicle; 5% (v/v) DMSO, 25% (v/v) 40% (w/v) Trappsol in 0.9% (w/v) saline, 70% (v/v) 40 mM citrate buffered saline at pH 3.5 at concentrations of 0.5 mg/mL and 1.5 mg/mL.
On the day of dosing, each formulation was prepared by dissolving solid antrafenine in DMSO using vortexing and sonication prior to addition of 40% (w/v) Trappsol in 0.9% (w/v) saline followed by 40 mM citrate-buffered saline at pH 3.5. Each sample was vortexed to create a colorless / light yellow solution and was filtered through a 0.22 µm syringe filter prior to dosing.
Administration of antrafenine was performed by a single bolus IV injection into the tail vein of C57BL/6 male mice using a 1ml syringe with a 25G x 1” needle at a volume of 2 mL/kg. Each […]
formulation was dosed to mice by bolus injection into the lateral tail vein (2 mL/kg) and blood samples were collected at 1, 2, 5, 15 and 30 min; 1, 2, 4, 7.5 and 24 h post-dose (n=3 mice per time point for each formulation). A maximum of three blood samples were obtained from each mouse, with plasma samples being taken via submandibular bleed (approximately 120 μL).
Blood was collected into polypropylene Eppendorf tubes containing heparin as anticoagulant and stabilization cocktail (Complete® (containing a protease inhibitor cocktail and EDTA) and potassium fluoride) to minimize the potential for ex vivo compound degradation in blood/plasma samples. Once collected, blood samples were centrifuged immediately, supernatant plasma was removed, snap frozen in dry ice and stored at -80°C until analysis by LC-MS. In addition, at the 15 min, 1, 4 and 24 h post-dose time points, the whole brain was rapidly removed from the carcass soon after the blood collection. The whole brains were blotted to remove excess blood, placed into pre-weighed polypropylene vials and weighed. The brains were snap frozen in dry […]

[2] = cited from earlier work
[3] = plasma, 1 mg/kg, IV 1 mg/kg, individual mice, read-out: Plasma Concentration Individual
[4] = plasma, 1 mg/kg, IV 1 mg/kg, n = 3, read-out: Plasma Concentration Mean ± SD
[5] = plasma, 3 mg/kg, IV 3 mg/kg, individual mice, read-out: Plasma Concentration Individual
[6] = plasma, 3 mg/kg, IV 3 mg/kg, n = 3, read-out: Plasma Concentration Mean ± SD
[7] = plasma, IV administration at 1mg/kg
[8] = plasma, IV administration at 3mg/kg

In the case of `O=C(OCCN1CCN(c2cccc(C(F)(F)F)c2)CC1)c1ccccc1Nc1ccnc2cc(C(F)(F)F)ccc12` [antrafenine], the Kp at 1 h ([1]; brain, 3 mg/kg, IV 3 mg/kg, individual mice, read-out: B:P ratio Individual) is reported as 0.14, the Kp at 1 h ([1]; brain, 3 mg/kg, IV 3 mg/kg, n = 3, read-out: B:P ratio Mean ± SD) is reported as 0.11 and the concentration at 1 h ([1]; brain, 3 mg/kg, IV 3 mg/kg, n = 3, read-out: Brain Parenchyma Concentration Mean ± SD) is reported as 0.0314 µM. The Kp at 4 h ([1]; brain, 3 mg/kg, IV 3 mg/kg, 4 h, individual mice, read-out: B:P ratio Individual) was 0.32, the Kp at 4 h ([1]; brain, 3 mg/kg, IV 3 mg/kg, 4 h, n = 3, read-out: B:P ratio Mean ± SD) was 0.29 and the Kp at 4 h ([1]; brain, 3 mg/kg, IV 3 mg/kg, 4 hours after administration, read-out: concentration in the brain as percentage of that present in plasma) was ~0.3. For the same compound, the concentration at 4 h ([1]; brain, 3 mg/kg, IV 3 mg/kg, 4 hours after administration, read-out: mean brain concentration) was 0.0139 µM, the concentration at 0.25 h [1, 3] was 0.313 µM and the concentration at 0.25 h [1, 4] was 0.297 µM. It also gave a concentration at 1 h [1, 3] of 0.122 µM, a concentration at 1 h [1, 4] of 0.113 µM and a concentration at 4 h ([1]; plasma, 1 mg/kg, IV 1 mg/kg, 4 h, individual mice, read-out: Plasma Concentration Individual) of 0.0125 µM. For the same compound, the concentration at 4 h ([1]; plasma, 1 mg/kg, IV 1 mg/kg, 4 h, n = 3, read-out: Plasma Concentration Mean ± SD) was 0.0131 µM, the concentration at 24 h [1, 3] was 0.002 µM and the concentration at 24 h [1, 4] was 0.0018 µM. The half-life ([1]; plasma, 1 mg/kg, plasma, IV administration at 1mg/kg, read-out: Apparent t1/2 (converted)) was 7.3 h, the concentration at 0.25 h [1, 5] was 0.738 µM and the concentration at 0.25 h [1, 6] was 0.697 µM. For the same compound, the concentration at 1 h [1, 5] was 0.282 µM, the concentration at 1 h [1, 6] was 0.28 µM and the concentration at 4 h ([1]; plasma, 3 mg/kg, IV 3 mg/kg, 4 h, individual mice, read-out: Plasma Concentration Individual) was 0.053 µM. It also gave a concentration at 4 h ([1]; plasma, 3 mg/kg, IV 3 mg/kg, 4 h, n = 3, read-out: Plasma Concentration Mean ± SD) of 0.0475 µM, a concentration at 4 h ([1]; plasma, 3 mg/kg, IV 3 mg/kg, 4 hours after administration, read-out: mean plasma concentration) of 0.0475 µM and a concentration at 24 h [1, 5] of 0.0057 µM. The concentration at 24 h [1, 6] was 0.0065 µM, the half-life ([1]; plasma, 3 mg/kg, plasma, IV administration at 3mg/kg, read-out: Apparent t1/2 (converted)) was 7.4 h and the half-life ([1]; plasma, 3 mg/kg, plasma, IV at 1 and 3 mg/kg, each profile, read-out: apparent terminal half-life (converted)) was ~7 h. For the same compound, the AUC(0-inf) [1, 7] was 1290 nM·h, the clearance [1, 7] was 1.32 L/h/kg and the Vd [1, 7] was 2.3 L/kg. The AUC(0-inf) [1, 8] was 3140 nM·h, the clearance [1, 8] was 1.63 L/h/kg and the Vd [1, 8] was 3.9 L/kg. The mean plasma concentration ([2]; 900 mg/day (approximately 12 mg/kg for a 75 kg adult), ref Berry et al, 1983) was 0.202 µM, the tolerability in humans ([2]; 900 mg/day) was “well tolerated” and the “mean circulating plasma levels” value ([2]; patients with osteoarthritis) was 0.3 µM.
